The values below come from patent publication US20090186767A1, “Use of surfactants for mitigating damage to plants from pests” (Cleareso, LLC, priority 2008, published 2009).

“Also recorded” adds a separate entry of the source.

In data set [1] the test system is larvae of the root weevil, Diaprepes abbreviatus. Briefly: Immersion of root weevil larvae in test solutions (Example 1). The data set is classed as in vivo. Particulars: for Judgement of toxicity to larvae: 0.1 to 5.0% treatments, test terminated at 24 hours; for Mortality of larvae with individual compounds and formulations: five larvae. As to the method: The criterion for toxicity with these larvae is the lack of nipping behavior and its consequent black residue from blood loss and the lack of spontaneous movement.
Experimental Design. Larvae and pupae were received from the Florida Dept. of Agriculture's rearing program in Gainesville, Fla. Larvae were shipped as 50-day larvae (larvae that will pupate in about 10 days). Both larvae and pupae were held at 27° C. in 12 hour cycles of light and dark in their containers as separate individuals until experimentation began.
In the testing, five larvae or pupae were removed from their rearing cups and placed in a 150 ml glass beaker. In testing the Soy Technologies Manufacturer's Base (SMTB), a 5% solution was mixed in either water or carbonated water by adding 10 ml of SMTB to a 250 ml beaker and then adding water or carbonated water to the 200 ml mark. The solutions were then immediately added to the beaker with the larvae or pupae to cover them. Controls with water or carbonated water alone were also included. There was a single tray of five larvae for each treatment at each time period and a five larvae control for each time period. Larvae were removed and placed on plastic weighing trays after 5, 10, 15, 20, 25, and 30 minutes. At the end of 30 minutes all organisms were assessed for mortality. Trays with larvae were left on the bench tip for 24 hours and then another mortality assessment was made.
Concentration Series. With the results from the time series above, larvae were held in different concentrations of STMB for 30 minutes. After 30 minutes, solutions were poured off and the trays wiped dry. Assessments were made at 24 or 48 hours with a few assessments at 72 hours dependent on effects. Treatments were: water or carbonated water as controls, and 0.1, 0.5, 1.0, 2.0, 3.0, 4.0 and 5.0% concentrations in either distilled water or carbonated water. Five larvae were used for each control and treatment. Pupae were not used in this assessment.

Data set [2] can be described thus: Solubility of test preparations in water (Example 1). The data set is classed as physicochemical. Particulars: concentration stated in the value.
For data set [3], the system named is tomato root galling by M. javanica. Particulars: in vivo; cited from earlier work.
The test system of data set [4] is second stage juveniles of Meloidognye hapla. Particulars: cited from earlier work; for Toxicity to nematodes: in vivo; for Toxicity to second stage juveniles: 24 hours at a concentration of 50 ppm.
[5] abbreviates: concentration 0.1 percent, 24 hours.
The mark [6] stands for this setting: concentration 1.0 percent, 24 hours.
Setting [7] is: concentration 3.0 percent, 24 hours.
The mark [8] stands for this setting: concentration 5.0 percent, 24 hours.
[9] abbreviates: concentration 0.1 percent, 48 hours.
[10] abbreviates: concentration 0.1 percent, 72 hours.
Where [11] appears, read: concentration 1.0 percent, 48 hours.
Setting [12] is: concentration 1.0 percent, 72 hours.
The mark [13] stands for this setting: concentration 3.0 percent, 48 hours.
Where [14] appears, read: concentration 3.0 percent, 72 hours.
The mark [15] stands for this setting: concentration 5.0 percent, 48 hours.
The mark [16] stands for this setting: concentration 5.0 percent, 72 hours.

For `COC(=O)CCC(=O)OC` [106-65-0, butanedioic acid, dimethyl ester], the “Judgement of toxicity to larvae” value in data set [1] was “judged to be non-toxic”. The “Mortality of larvae with individual compounds and formulations” value (“Mortality of larvae” below) amounted to 2 in data set [1] (setting [5]), 2 in data set [1] (setting [6]), 1 in data set [1] (setting [7]) and 1 in data set [1] (setting [8]). The “Solubility of the preparation” value in data set [2] (listed as Dimethyl succinate) was “The 3% and 5% concentrations were not soluble; also recorded: the 1.0% appears to be just soluble; also recorded: The 0.1% was soluble”.
In the case of `COC(=O)CCCCC(=O)OC` [627-93-0, Dimethyl hexanedioate], in data set [1], the “Judgement of toxicity to larvae” value is “judged non-toxic”. The “Mortality of larvae” value in data set [1] (setting [5]) is recorded as 2; in data set [1] (setting [6]), 1; in data set [1] (setting [7]) it was 2; in data set [1] (setting [8]), 3. Besides, in data set [2] (listed as Dimethyladipate), the “Solubility of the preparation” value was “Preparations of 1.0, 3.0, and 5.0% concentration were not completely soluble; also recorded: The 0.1% preparation was soluble”.
`COC(=O)CCCC(=O)OC` [1119-40-0, pentanedioic acid, dimethyl ester]: the “Mortality of larvae” value is given as 3 in data set [1] (setting [9]); 3 in data set [1] (setting [10]); 1 in data set [1] (setting [11]); 2 in data set [1] (setting [12]); 0 in data set [1] (setting [13]); 0 in data set [1] (setting [14]). Moreover, the entries for the “Mortality of larvae” value in data set [1] (setting [15]) and in data set [1] (setting [16]) were 1 and 2, respectively.
On to `CCCCCCCCC(=O)OC` [Methyl perlargonate], for which, in data set [3], the “Concentration producing reduced galling of plants” value is recorded as 0.8 microliters/liter.
For `CCCCCCCC/C=C\CCCCCCCC(=O)O` [Oleic acid], in data set [4], the Toxicity to nematodes entry is reported as “relatively nontoxic”.
With `CCCCCCCCCC(=O)O` [decanoic acid], the “Toxicity to second stage juveniles” value in data set [4] is “killed all second stage juveniles”.
Regarding `CCCCCCCC/C=C\CCCCCCCC(=O)[O-].[K+]` [potassium oleate], the Toxicity to nematodes result in data set [4] is “relatively nontoxic”.
Consider `CCCCCCCCCCC(=O)O` [undecanoic acid], for which the “Toxicity to second stage juveniles” value in data set [4] was “killed all second stage juveniles”.
Take “Polyoxyethylene 10 tridecylether [24938-91-8]”: the “Mortality of larvae” value is on record as 0 in data set [1] (setting [5]); 0 in data set [1] (setting [9]); 0 in data set [1] (setting [10]); 2 in data set [1] (setting [6]); 2 in data set [1] (setting [11]); 2 in data set [1] (setting [12]). Further, the “Mortality of larvae” value in data set [1] (setting [7]) is 0; in data set [1] (setting [13]) it was 0; in data set [1] (setting [14]), 0; in data set [1] (setting [8]), 0; in data set [1] (setting [15]), 3; in data set [1] (setting [16]), 3.
glycol pelargonate: the “Concentration producing reduced galling of plants” value in data set [3] was 6.4 microliters/liter.
